Read-outs that look alike come from different tables or passages of the source.
How the values were obtained:
Format in all cases: cell-based
melanoma UACC-62 = assay: COMPARE screening (NCI human cancer cell line screen), cytotoxicity GI50
Description: (§1) Selected compounds were tested for antiproliferative activity in the National Cancer Institute's developmental therapeutics assay 60 cell line screen (NCI60). The cells were incubated with the tested compounds at 100, 10, 1, 0.1, and 0.01 μM concentrations for 48 h before treatment with sulforhodamine B dye. Optical densities were recorded, and their ratios relative to that of the control were plotted as percentage growth against the log 10 of the tested compound concentrations.

prostate DU-145 = assay: as above
Description: as §1

lung HOP-62 = assay: as above
Description: as §1

renal SN12C = assay: as above
Description: as §1

CNS SF-539 = assay: as above
Description: as §1

ovarian OVCAR-3 = assay: as above
Description: as §1

colon HCT-116 = assay: as above
Description: as §1

breast MDA-MB-435 = assay: as above
[1] = tested on: all human cancer cell lines successfully tested; assay: NCI screen mean graph midpoint (MGM) for growth inhibition
Description: COMPARE screening. The compounds described herein were examined for antiproliferative activity against the human cancer cell lines in the National Cancer Institute screen (COMPARE screening), in which the activity of each compound was evaluated with approximately 55 different cancer cell lines of diverse tumor origins. […] Therefore, the MGM value represents an overall assessment of toxicity of the compound across numerous cell lines.
as §1
The cytotoxicities of the compounds to cultured cancer cells were measured in the National Cancer Institute's 60 cell line assay (a.k.a. NCI-60).

[2] = Homo sapiens, UACC-62, read-out: cytotoxicity (GI50) melanoma UACC-62
[3] = Homo sapiens, DU-145, read-out: cytotoxicity (GI50) prostate DU-145
[4] = Homo sapiens, HOP-62, read-out: cytotoxicity (GI50) lung HOP-62
[5] = Homo sapiens, SN12C, read-out: cytotoxicity (GI50) renal SN12C
[6] = Homo sapiens, CNSSF-539, read-out: cytotoxicity (GI50) CNS SF-539
[7] = Homo sapiens, OVCAR-3, read-out: cytotoxicity (GI50) ovarian OVCAR-3
[8] = Homo sapiens, HCT-116, read-out: cytotoxicity (GI50) colon HCT-116
[9] = Homo sapiens, MDA-MB-435, read-out: cytotoxicity (GI50) breast MDA-MB-435
[10] = Table 1, average GI50 of all cell lines tested (approximately 55), test range 10^−8 to 10^−4 molar
[11] = all human cancer cell lines successfully tested
[12] = melanoma UACC-62, concentration corresponding to 50% growth inhibition, read-out: cytotoxicity (GI50 in μM) melanoma UACC-62
[13] = prostate DU-145, concentration corresponding to 50% growth inhibition, read-out: cytotoxicity (GI50 in μM) prostate DU-145
[14] = lung HOP-62, concentration corresponding to 50% growth inhibition, read-out: cytotoxicity (GI50 in μM) lung HOP-62
[15] = renal SN12C, concentration corresponding to 50% growth inhibition, read-out: cytotoxicity (GI50 in μM) renal SN12C
[16] = CNS SF-539, concentration corresponding to 50% growth inhibition, read-out: cytotoxicity (GI50 in μM) CNS SF-539
[17] = ovarian OVCAR-3, concentration corresponding to 50% growth inhibition, read-out: cytotoxicity (GI50 in μM) ovarian OVCAR-3
[18] = colon HCT-116, concentration corresponding to 50% growth inhibition, read-out: cytotoxicity (GI50 in μM) colon HCT-116
[19] = breast MDA-MB-435, concentration corresponding to 50% growth inhibition, read-out: cytotoxicity (GI50 in μM) breast MDA-MB-435
[20] = Table 1, concentration corresponding to 50% growth inhibition, read-out: cytotoxicity (GI50) ovarian OVCAR-3

| SMILES | GI50 (melanoma UACC-62) [µM] | GI50 (prostate DU-145) [µM] | GI50 (lung HOP-62) [µM] | GI50 (renal SN12C) [µM] | GI50 (CNS SF-539) [µM] | GI50 (ovarian OVCAR-3) [µM] | GI50 (colon HCT-116) [µM] | GI50 (breast MDA-MB-435) [µM] | MGM (mean graph midpoint for growth inhibition) [1, 10] [µM] | also measured |
| --- | --- | --- | --- | --- | --- | --- | --- | --- | --- | --- |
| Cl.NCCCCCCn1c2c(c3ccccc3c1=O)C(=O)c1ccccc1-2 [Compound 5ap, 6-(6-Aminohexyl)-5,6-dihydro-5,11-diketo-11H-indeno[1,2-c]isoquinoline Hydrochloride] |  |  |  |  |  |  |  |  |  | GI50 (melanoma UACC-62; [2]): 1.62 µM; GI50 (prostate DU-145; [3]): 0.603 µM; GI50 (lung HOP-62; [4]): 1.29 µM; GI50 (renal SN12C; [5]): 1.32 µM; GI50 (CNS SF-539; [6]): 1.23 µM; GI50 (ovarian OVCAR-3; [7]): 2 µM; GI50 (colon HCT-116; [8]): 0.912 µM; GI50 (breast MDA-MB-435; [9]): 2.04 µM; MGM (mean GI50 across cell lines) [1, 10]: 1320 nM |
| Cl.NCCCn1c2c(c3ccccc3c1=O)C(=O)c1ccccc1-2 [Compound 5am] | 0.26 | 0.22 | 0.2 | 0.16 | 0.25 | 1.38 | 0.18 | 0.78 | 0.32 ± 0.23 |  |
| O=C(O)C(F)(F)F.O=C(O)C(F)(F)F.O=C1c2ccccc2-c2c1c1ccccc1c(=O)n2CCCN1CCN(CCCn2c3c(c4ccccc4c2=O)C(=O)c2ccccc2-3)CC1 [Compound 14f, Bis-1,4-{(5,6-dihydro-5,11-diketo-11H-indeno[1,2-c]isoquinoline)-6-propyl}piperazine Bis(trifluoroacetate)] | > 100 | 24 | 12.9 | 15.5 | > 100 | > 100 | 35.5 | > 100 |  | MGM (mean graph midpoint for growth inhibition) [1, 11]: 44.8 ± 2.05 µM |
| COc1cc2c3c(n(CCCNCCCNCCCn4c5c(c6cc(OC)c(OC)cc6c4=O)C(=O)c4ccccc4-5)c(=O)c2cc1OC)-c1ccccc1C3=O.O=C(O)C(F)(F)F.O=C(O)C(F)(F)F [Compound 14l, Bis-1,3-{(5,6-dihydro-5,11-diketo-2,3-dimethoxy-11H-indeno[1,2-c]isoquinoline)-6-propylamino}propane Bis{trifluoroacetate)] |  |  |  |  |  |  |  |  |  | GI50 (melanoma UACC-62; [12]): 4.27 µM; GI50 (prostate DU-145; [13]): 19.5 µM; GI50 (lung HOP-62; [14]): 1.51 µM; GI50 (renal SN12C; [15]): 0.24 µM; GI50 (CNS SF-539; [16]): 4.17 µM; GI50 (ovarian OVCAR-3; [17]): 9.55 µM; GI50 (colon HCT-116; [18]): 0.331 µM; GI50 (breast MDA-MB-435; [19]): 3.98 µM; MGM (mean GI50 across cell lines) [1, 11]: 6030 nM |
| NCCCn1c2c(c3ccccc3c1=O)C(=O)c1ccccc1-2 [Compound S-3, 5,6-dihyro-6-(3-amino-1-propyl)-5,11-dioxo-11H-indeno[1,2,c]isoquinoline, reference compound] | 0.26 | 0.22 | 0.2 | 0.16 | 0.25 | 1.38 | 0.18 | 0.78 |  | MGM (mean graph midpoint for growth inhibition) [1, 11]: 0.32 ± 0.23 µM |
| COc1cc2c3c(n(CCCn4cccn4)c(=O)c2cc1OC)-c1cc2c(cc1C3=O)OCO2 [Compound 5m] | 0.269 | 0.363 | 0.447 | 0.316 | 0.398 | 56.2 | 1.99 | 7.08 | 2.16 ± 0.24 |  |
| COc1cc2c3c(n(CCCN4CCC(N)CC4)c(=O)c2cc1OC)-c1cc2c(cc1C3=O)OCO2.Cl.Cl [Compound 5u, 6-[3-(4-Aminopiperidinyl)-1-propyl]-5,6-dihydro-2,3-dimethoxy-8,9-methylenedioxy-5,11-dioxo-11H-indeno[1,2-c]isoquinoline Dihydrochloride] | 1.29 | 0.182 | 0.427 | 0.257 | 0.1 |  | 0.12 | 1.74 | 0.766 ± 0.254 | GI50 (ovarian OVCAR-3; [20]): 0.832 µM |
| COc1ccc2c(c1)C(=O)c1c-2n(CCCN=[N+]=[N-])c(=O)c2ccccc12 [Compound 5bf] | 75.9 | 61.7 | 33.9 | > 100 | 44.7 | 52.5 | 26.9 | 64.6 |  | MGM (mean GI50 across cell lines) [1, 10]: 38900 nM |
| COc1cc2c3c(n(CCNCCCNCCn4c5c(c6cc(OC)c(OC)cc6c4=O)C(=O)c4ccccc4-5)c(=O)c2cc1OC)-c1ccccc1C3=O.O=C(O)C(F)(F)F.O=C(O)C(F)(F)F [Compound 14k, Bis-1,3-{(5,6-dihydro-5,11-diketo-2,3-dimethoxy-11H-indeno[1,2-c]isoquinoline)-6-ethylamino}propane Bis{trifluoroacetate)] |  |  |  |  |  |  |  |  |  | GI50 (melanoma UACC-62; [12]): 1.23 µM; GI50 (prostate DU-145; [13]): 0.209 µM; GI50 (lung HOP-62; [14]): 0.068 µM; GI50 (renal SN12C; [15]): 0.028 µM; GI50 (CNS SF-539; [16]): 0.17 µM; GI50 (ovarian OVCAR-3; [17]): 0.269 µM; GI50 (colon HCT-116; [18]): 0.045 µM; GI50 (breast MDA-MB-435; [19]): 0.813 µM; MGM (mean GI50 across cell lines) [1, 11]: 562 nM |
| Nn1c2c(c3ccccc3c1=O)C(=O)c1ccccc1-2 [Compound 5z, 6-Amino-5,6-dihydro-5,11-diketo-11H-indeno[1,2-c]isoquinoline] |  |  |  |  |  |  |  |  |  | GI50 (melanoma UACC-62; [2]): > 50.1 µM; GI50 (prostate DU-145; [3]): > 50.1 µM; GI50 (lung HOP-62; [4]): 24.5 µM; GI50 (renal SN12C; [5]): > 50.1 µM; GI50 (CNS SF-539; [6]): 28.2 µM; GI50 (ovarian OVCAR-3; [7]): > 50.1 µM; GI50 (colon HCT-116; [8]): > 50.1 µM; GI50 (breast MDA-MB-435; [9]): > 50.1 µM; MGM (mean GI50 across cell lines) [1, 10]: 39800 nM |
| COc1ccc2c(c1)C(=O)c1c-2n(CCCN(C)C)c(=O)c2cc([N+](=O)[O-])ccc12 [Compound 5bp] | < 0.01 | < 0.01 | < 0.01 | < 0.01 | < 0.01 | 0.028 | < 0.01 | < 0.01 | 0.020 ± 0.001 |  |
| Cl.NCCCCn1c2c(c3ccccc3c1=O)C(=O)c1ccccc1-2 [Compound 5an] | 0.05 | 0.01 | 0.08 | 0.04 | 0.1 | 0.52 | 0.1 | 0.84 | 0.16 ± 0.01 |  |
| COc1cc2c3c(n(CCCNc4nccs4)c(=O)c2cc1OC)-c1cc2c(cc1C3=O)OCO2.Cl.Cl [Compound 5o, 6-(3-Thiazolylamino-1-propyl)-5,6-dihydro-2,3-dimethoxy-8,9-methylenedioxy-5,1-dioxo-11H-indeno[1,2-c]isoquinoline Dihydrochloride] | 0.014 | < 0.01 | < 0.01 | < 0.01 | < 0.01 |  | < 0.01 | < 0.01 | 0.112 ± 0.066 | GI50 (ovarian OVCAR-3; [20]): 0.041 µM |
| Cl.NCCn1c2c(c3ccccc3c1=O)C(=O)c1ccccc1-2 [Compound 5al] | 0.92 | 0.76 | 0.62 | 0.49 | 0.21 | 0.71 | 0.27 | 0.92 | 0.530 ± 0.320 |  |
| O=C(O)C(F)(F)F.O=C1c2ccccc2-c2c1c1ccccc1c(=O)n2CCCNCCn1c2c(c3ccccc3c1=O)C(=O)c1ccccc1-2 [Compound 14a, Bis{(5,6-dihydro-5,11-diketo-11H-indeno[1,2-c]isoquinoline)}-(6-ethyl,6′-propyl)ammonium Trifluoroacetate] | 5.01 | 1.91 | 0.977 | 11 | 14.5 | 8.91 | 1.05 | 2.24 |  | MGM (mean GI50 across cell lines) [1, 11]: 5250 nM |

Source: patent US9796753B2, “N-substituted indenoisoquinolines and syntheses thereof” (Purdue Research Foundation, priority 2005, dated 2017)
